Source: patent US8653115B2, “Heterocyclic non-nucleoside compounds, their preparation, pharmaceutical composition and their use as antiviral agents” (Shanghai Institute of Materia Medica, Chinese Academy of …, priority 2006, dated 2014)

How the values were obtained:
[1] = system: Hepatitis B virus (HBV) DNA; assay: HBV-DNA replication in HepG2.2.15 supernatant, fluorescent quantification PCR; type: cell-based; settings: for IC50: Hepatitis B virus, 192 h, HepG2.2.15 supernatant, day 8, PCR, NA means no obvious biological activity or unable to be calculated
Protocol: (§1) Hepatitis B virus (HBV) transgenic human hepatoma carcinoma cell, HepG2.2.15 cell line, can secrete hepatitis B virus particles (containing antigen and DNA) into the supernatant when being incubated.
(§2) Under the influence of antiviral drugs, the contents of HBsAg, HBeAg and viral DNA secreted from cells into the supernatant were detected. Compared with the contents of control groups without drugs, the antiviral activity of the sample drugs can be observed. Meanwhile, the cytotoxic effect of the sample drugs can be detected. The value concentration of the sample drugs which caused 50% of the cells dead measured with MTT method was CC50. And the value concentration of the sample drugs which inhibited 50% of the secretion of HBsAg and HBeAg detected by specific ELISA kits and inhibited 50% of the viral DNA replication detected by fluorescent quantitation PCR method was IC50.
(§3) HepG2.2.15 cells were inoculated into a 96-well plate, and the sample drugs were added next day. The medium and the sample drugs with the same concentration were renewed periodically, and the supernatants were collected on the eighth day to be detected. MTT was added to the cells in the 96-well plate, and MTT dissolving solution was added after 4 hours and reacted overnight. OD570 was measured on ELISA the next day. The cytotoxicity of the sample drugs to HepG2.2.15 cells, the effect of the sample drugs on the growth of the cells, and the concentration of the sample drugs (CC50) resulting in 50% of the cells dead were estimated according to the OD values.
A suitable amount of supernatant was added to the same volume of virus extract solution, and was boiled after mixed homogenously, then centrifuged at 10000 rpm under room temperature for 5 minutes, and a suitable amount of supernatant was collected for PCR amplification. Meanwhile five HBV-DNA standard samples were set to establish a standard curve. According to the obtained viral DNA replication value, the inhibition ratios of HBV-DNA replication of each sample drug at different concentrations were calculated, and then the half inhibition rates of the sample drugs were calculated to obtain IC50. For those samples that can not be calculated for IC50 values, they can be represented by ICx and list the corresponding concentration values.

[2] = Cytotoxicity to HepG2.2.15 cells, MTT method; type: cell-based; settings: human, HepG2.2.15 cells (HBV-transgenic human hepatoma cell line), day 8, 50% death concentration
Protocol: as §1, §2, §3

[3] = system: Duck hepatitis B virus (DHBV); assay: Anti hepatitis B virus activity on animal: DHBV-DNA level in serum of infected ducks, dot blot hybridization; type: in vivo, Beijing duck; settings: 50 mg/kg oral (intragastric) twice per day for 10 days; for inhibitory effect to DHBV-DNA in duck serum, group analysis (versus virus control group) / inhibitory effect to DHBV-DNA in duck serum, paired analysis (versus T0 of same group): T5, T10, P3
Protocol: The solutions of the sample drugs having required concentration (100 mg/mL) were prepared by using 0.3% sodium carboxymethyl cellulose. Batch number: 00701010
Strong positive serum of Duck hepatitis B virus DNA (DHBV-DNA), collected from Shanghai brown-duck, was store at −70[…].
1-day-old Beijing duck, purchased from Beijing QianJin breeding duck farm.
1-day-old Beijing duck was injected DHBV-DNA positive serum of Shanghai brown-duck via vena cruralis with 0.2 ml/each duck. Blood was taken on the seventh day after infected; serum was separated and stored at −70[…] to be detected.
DHBV infected ducklings were randomly grouped (six ducklings/each group) to carry out drug treatment experiment after 7 days. The administration groups (W28D, W28F, W28M, C37) were set 1 dose group—50 mg/kg respectively, and oral (intragastric) administered twice per day for 10 days (Bid×10). The drugs were replaced with normal saline in virus control group (DHBV). […] Blood was taken from the vena cruralis of the duck after 7 days later of infection, i.e. before drug administration (T0), the fifth day (T5) and the tenth day after drug administration (T10), and the third day after drug withdrawal (P3), then serum was separated and stored at −70[…] to be detected.
The above duck serum was taken and dotted on the membrane to measure the dynamic level of DHBV-DNA in the duck serum. According to the instruction of nick translation kit, dot blot hybridization of duck serum and was carried out using ^32 P labeled DHBV-DNA probe (purchased from Promega Co.). And the dots were shown on the membrane by radioautography. The OD values (the filter was 490 nm) of the dots on the membrane were measured by ELISA. DHBV-DNA density of the serum was calculated and the OD values of the hybridized dot were used as the values of DHBV-DNA level.
a) The mean values (X±SD) of DHBV-DNA OD values of serum at different time of the ducks in each group were calculated, and the DNA levels of serum at different time after drug administration (T5, T10) and the third day after drug withdrawal (P3) for the ducks in each group and were compared with the OD values before administration (T0) of the same group. The values of t1 and P1 were calculated by paired-t test. The significance of the difference was analyzed, and the inhibitory effect of the drugs on the viral infection was estimated.
b). The inhibition ratio (%) to DHBV-DNA of serum at different time after administration (T5, T10) and the third day after drug withdrawal (P3) of the ducks in each group were calculated and illuminated in the figure, and the dynamic state of the inhibition ratios of DHBV-DNA in duck serum in each group were compared.
c) The inhibitions % of DHBV-DNA at different time of the administration group were compared with that at the same time of the virus control group. […] The significance of the difference was analyzed, and the drug action was estimated.

Row | SMILES | IC50 [1] [nM] | CC50 at 8 day [2] [µM] | other results
1 | COc1ccc(-c2nc(C(=O)OC(C)C)c(CC(C)C)s2)cc1 [C37] | 30 | > 33 | inhibitory effect to DHBV-DNA in duck serum, group analysis (versus virus control group) [3]: at each time point did not show inhibitory effect to DHBV-DNA; inhibitory effect to DHBV-DNA in duck serum, paired analysis (versus T0 of same group) [3]: at each time point did not show inhibitory effect to DHBV-DNA
2 | CC(C)Cc1sc(-c2nccs2)nc1CO [C254] | > 33300 | > 33.3 | –
3 | CC(=O)c1nc(-c2nccs2)sc1CC(C)C [C266] | 60 | > 33.3 | –
4 | CC(C)Cc1sc(-c2nccs2)nc1C(N)=O [C267] | – | > 100 | DNA replication ICX: IC89 ([1]; concentration at 89% inhibition, IC50 not calculable): IC89 = 33 μM
5 | CC(C)Cc1sc(-c2nccs2)nc1C(C)O (stereo not drawn) [C268-2] | 600 | > 33.3 | –
6 | CCOC(=O)c1nc(-c2ccccn2)oc1CC(C)C [C274] | 67600 | > 100 | –
7 | CCC(=O)c1nc(-c2nccs2)sc1CC(C)C [C280-4] | 90 | > 33.3 | –
8 | CNC(=O)c1nc(-c2nccs2)sc1CC(C)C [C281] | – | > 100 | DNA replication ICX: IC94 ([1]; concentration at 94% inhibition, IC50 not calculable): IC94 = 33 μM
9 | CCC(O)c1nc(-c2nccs2)sc1CC(C)C (stereo not drawn) [C282-2] | 800 | > 33.3 | –
10 | CCOC(=O)c1nc(-c2cccnc2)sc1CC(C)C [C290-2] | – | > 100 | –
11 | CCOC(=O)c1nc(-c2ccncc2)sc1CC(C)C [C290-3] | – | > 100 | –
12 | CCOC(=O)c1nc(-c2ccccn2)sc1CC(C)C [C290] | 140 | > 100 | –
13 | CC(C)Cc1sc(-c2nccs2)nc1C(=O)N(C)C [C295-3] | – | > 100 | DNA replication ICX: IC12 ([1]; concentration at 12% inhibition, IC50 not calculable): IC12 = 1.23 μM
14 | CCOC(=O)c1nc(-c2ccc(C)cc2)sc1CC(C)C [C303-1] | 2900 | > 33.3 | –
15 | CCOC(=O)c1nc(-c2cccc(C)c2)sc1CC(C)C [C303-2] | > 33300 | > 33.3 | –
16 | CCOC(=O)c1nc(-c2ccccc2C)sc1CC(C)C [C303-3] | 1480 | > 33.3 | –
17 | CCOC(=O)c1nc(-c2ccc(O)cc2)sc1CC(C)C [C305-4] | – | > 33.3 | –
18 | CCOC(=O)c1nc(-c2cccc(O)n2)sc1CC(C)C [C306-2] | 140 | > 100 | –
19 | CCOC(=O)c1nc(-c2ncccc2O)sc1CC(C)C [C306-3] | 140 | 5.67 | –
20 | CCOC(=O)c1nc(-c2ccc(F)cc2)sc1CC(C)C [C307-2] | – | > 33.3 | –
21 | CCOC(=O)c1nc(-c2cccc(F)c2)sc1CC(C)C [C307-3] | < 50 | > 33.3 | –
22 | CCOC(=O)c1nc(-c2ccccc2F)sc1CC(C)C [C307-4] | 140 | > 33.3 | –
23 | CC(C)Cc1sc(-c2nccs2)nc1C(=O)OC(C)C [C310-4] | 810 | > 100 | inhibitory effect to DHBV-DNA in duck serum, group analysis (versus virus control group) [3]: T10 showed inhibitory effect to DHBV-DNA with statistical significance; inhibitory effect to DHBV-DNA in duck serum, paired analysis (versus T0 of same group) [3]: T10 showed inhibitory effect to DHBV-DNA with statistical significance

Row | SMILES | IC50 [1] [nM] | CC50 at 8 day [2] [µM] | other results
24 | CCOC(=O)c1nc(-c2ccc(OC)cc2)sc1CC(C)C [C319-3] | 90 | > 33.3 | –
25 | CCOC(=O)c1nc(-c2cccc(OC)c2)sc1CC(C)C [C319-4] | 110 | > 33.3 | –
26 | CCOC(=O)c1nc(-c2ccccc2OC)sc1CC(C)C [C319-5] | 40 | > 33.3 | –
27 | CCOC(=O)C=Cc1nc(-c2nccs2)sc1CC(C)C [C322-2] | 60 | > 33.3 | –
28 | CCOC(=O)c1nc(-c2ccc3ccccc3n2)[nH]c1CC(C)C [C323-2] | – | > 100 | –
29 | CCOC(=O)c1nc(-c2cccc(Cl)c2)sc1CC(C)C [C323-3] | – | > 33.3 | –
30 | CCOC(=O)c1nc(-c2ccc3ccccc3n2)oc1CC(C)C [C324-4] | 11900 | 45.4 | –
31 | CCOC(=O)CCc1nc(-c2nccs2)sc1CC(C)C [C324-5] | 3000 | > 33.3 | –
32 | CC(C)Cc1sc(-c2nccs2)nc1C(=O)OC(C)(C)C [C324-6] | 3700 | > 33.3 | –
33 | CCOC(=O)c1nc(-c2ccc([N+](=O)[O-])cc2)sc1CC(C)C [C334-2] | 1060 | > 33.3 | –
34 | CCOC(=O)c1nc(-c2cccc([N+](=O)[O-])c2)sc1CC(C)C [C334-3] | 1200 | > 33.3 | –
35 | CCOC(=O)c1nc(-c2ccccc2[N+](=O)[O-])sc1CC(C)C [C334-4] | 1240 | > 33.3 | –
36 | CC(C)Cc1sc(-c2nccs2)nc1C(=O)Nc1ccccc1 [C343] | – | 50 | DNA replication ICX: IC19 ([1]; concentration at 19% inhibition, IC50 not calculable): IC19 = 1.23 μM
37 | CCOC(=O)c1nc(-c2ncc(-c3ccccc3)s2)sc1CC(C)C [C358] | – | > 33.3 | DNA replication ICX: IC36 ([1]; concentration at 36% inhibition, IC50 not calculable): IC36 = 1.23 μM
38 | CCOC(=O)c1nc(-c2cccc([N+](=O)[O-])c2OC)sc1CC(C)C [C364-1] | 1100 | 19.2 | –
39 | CCOC(=O)c1nc(-c2ccc([N+](=O)[O-])c(OC)c2)sc1CC(C)C [C364-2] | – | > 33.3 | –
40 | CCOC(=O)c1nc(-c2ncc(Br)s2)sc1CC(C)C [C375] | > 33300 | > 33.3 | –
41 | CCOC(=O)c1nc(-c2ccc(NC(=O)OC(C)(C)C)cc2)sc1CC(C)C [C404] | – | > 33.3 | –
42 | CC(C)Cc1sc(-c2nccs2)nc1C(=O)NCc1ccc(F)cc1 [W28F] | 780 | 43 | DHBV-DNA rebound 3 days after drug withdrawal (P3) ([3]; then P3): rebounded, it did not reach the original level; inhibitory effect to DHBV-DNA in duck serum, group analysis (versus virus control group) [3]: T5 and T10 showed inhibitory effect to DHBV-DNA with statistical significance; inhibitory effect to DHBV-DNA in duck serum, paired analysis (versus T0 of same group) [3]: T5 and T10 showed inhibitory effect to DHBV-DNA with statistical significance
43 | Cc1cnc(-c2nc(C(=O)OC(C)C)c(CC(C)C)s2)s1 [W28M] | < 80 | > 20 | inhibitory effect to DHBV-DNA in duck serum, group analysis (versus virus control group) [3]: did not show any effect with statistical significance; inhibitory effect to DHBV-DNA in duck serum, paired analysis (versus T0 of same group) [3]: T10 and P3 showed inhibitory effect to DHBV-DNA with statistical significance
44 | COC(=O)c1nc(-c2nccs2)sc1CC(C)C [W28] | 2400 | > 333 | –
45 | CCCCc1sc(-c2nccs2)nc1C(=O)O [Wang268] | – | 257 | DNA replication ICX: IC53 ([1]; concentration at 53% inhibition, IC50 not calculable): IC53 = 125 μM
46 | O=C(O)c1nc(-c2nccs2)sc1Cc1ccccc1 [Wang302] | 63100 | 192 | –
